molecular target: RNP_CAL (PB2, PB1, PA, NP, influenza A Luciferase reporter in 293T cells) (Influenza A virus (strain swl A/California/04/2009 H1N1), UniProt C3W5S0); assay: cell-based

Point of comparison: `N#Cc1cnc2n1C[C@H](C(c1ccc(F)cc1)c1ccc(F)cc1)n1ncc(=O)c(O)c1-2` [Example 49, (S)-6-(bis(4-fluorophenyl)methyl)-11-hydroxy-10-oxo-5,6-dihydro-10H-imidazo[2′,1′:3,4]pyrazino[1,2-b]pyridazine-3-carbonitrile], EC50 820 nM. Against it:
- O=c1ccn2c(c1O)-c1ncoc1CN2C(c1ccccc1)c1ccccc1 [Example 83, 5-benzhydryl-10-hydroxy-4,5-dihydro-9H-oxazolo[4,5-d]pyrido[1,2-b]pyridazin-9-one] — within 1.5-fold, 970 nM
- O=c1cnn2c(c1O)-c1nccn1C[C@@H]2[C@@H](c1ccc(F)cc1)c1cccc(Cl)c1 [Example 31, (S)-6-((S)-(3-chlorophenyl)(4-fluorophenyl)methyl)-11-hydroxy-5,6-dihydro-10H-imidazo[2′,1′:3,4]pyrazino[1,2-b]pyridazin-10-one] — 22-fold lower, 37 nM
- O=c1cnn2c(c1O)-c1nccn1CC2C(c1ccc(Cl)cc1)c1ccc(Cl)cc1 (stereo not drawn) [Example 10, 6-(bis(4-chlorophenyl)methyl)-11-hydroxy-5H-imidazo[2′,1′:3,4]pyrazino[1,2-b]pyridazin-10(6H)-one] — 2.6-fold lower, 320 nM
- O=c1ccn2c(c1O)-c1ncsc1CN2C(c1ccccc1)c1ccccc1 [Example 81, 5-benzhydryl-10-hydroxy-4,5-dihydro-9H-pyrido[1,2-b]thiazolo[4,5-d]pyridazin-9-one] — 8.5-fold higher, 7000 nM
- Cc1cnc2n1C[C@H](C(c1ccccc1)c1ccccc1)n1ccc(=O)c(O)c1-2 [Example 13, (S)-6-benzhydryl-11-hydroxy-3-methyl-5H-imidazo[1,2-a]pyrido[2,1-c]pyrazin-10(6H)-one] — 2.6-fold lower, 310 nM
- N#Cc1ccc([C@H](c2ccc(F)cc2)[C@H]2Cn3ccnc3-c3c(O)c(=O)cnn32)cc1 [Example 45, 4-((R)-(4-fluorophenyl)((S)-11-hydroxy-10-oxo-5,6-dihydro-10H-imidazo[2′,1′:3,4]pyrazino[1,2-b]pyridazin-6-yl)methyl)benzonitrile] — 20-fold lower, 42 nM
- O=c1cnn2c(c1O)-c1nccn1C[C@@H]2[C@H](c1ccc(F)cc1)c1cccc(F)c1 [Example 26, (S)-6-((R)-(3-fluorophenyl)(4-fluorophenyl)methyl)-11-hydroxy-5,6-dihydro-10H-imidazo[2′,1′:3,4]pyrazino[1,2-b]pyridazin-10-one] — 22-fold lower, 38 nM
- CC(O)c1cnc2n1C[C@H](C(c1ccccc1)c1ccccc1)n1ccc(=O)c(O)c1-2 (stereo partly drawn) [Example 55, (6S)-6-benzhydryl-11-hydroxy-3-(1-hydroxyethyl)-5H-imidazo[1,2-a]pyrido[2,1-c]pyrazin-10(6H)-one] — 2.1-fold higher, 1700 nM
- O=c1cnn2c(c1O)-c1nccn1C[C@@H]2C(c1ccc(F)cc1)c1ccc(F)cc1 [Example 22, (S)-6-(bis(4-fluorophenyl)methyl)-11-hydroxy-5,6-dihydro-10H-imidazo[2′,1′:3,4]pyrazino[1,2-b]pyridazin-10-one] — 10-fold lower, 82 nM
- Cc1cc(F)ccc1[C@H](c1ccc(F)cc1)[C@H]1Cn2ccnc2-c2c(O)c(=O)cnn21 [Example 27, (S)-6-((S)-(4-fluoro-2-methylphenyl)(4-fluorophenyl)methyl)-11-hydroxy-5,6-dihydro-10H-imidazo[2′,1′:3,4]pyrazino[1,2-b]pyridazin-10-one] — 16-fold lower, 50 nM
- CC(C)C(=O)Oc1c2n(ncc1=O)[C@@H](C(c1ccc(F)cc1)c1ccc(F)cc1)Cn1ccnc1-2 [Example 86, (S)-6-(bis(4-fluorophenyl)methyl)-10-oxo-5,6-dihydro-10H-imidazo[2′,1′:3,4]pyrazino[1,2-b]pyridazin-11-yl isobutyrate] — 39-fold lower, 21 nM
- O=c1cnn2c(c1O)-c1ncc(CO)n1C[C@@H]2C(c1ccc(F)cc1)c1ccc(F)cc1 [Example 50, (S)-6-(bis(4-fluorophenyl)methyl)-11-hydroxy-3-(hydroxymethyl)-5,6-dihydro-10H-imidazo[2′,1′:3,4]pyrazino[1,2-b]pyridazin-10-one] — 8.2-fold lower, 100 nM
- N#Cc1ccccc1[C@H](c1ccc(F)cc1)[C@H]1Cn2ccnc2-c2c(O)c(=O)cnn21 [Example 44, 2-((S)-(4-fluorophenyl)((S)-11-hydroxy-10-oxo-5,6-dihydro-10H-imidazo[2′,1′:3,4]pyrazino[1,2-b]pyridazin-6-yl)methyl)benzonitrile] — 2.7-fold lower, 300 nM
- CSc1cccc([C@H](c2ccc(F)cc2)[C@H]2Cn3ccnc3-c3c(O)c(=O)cnn32)c1 [Example 28, (S)-6-((S)-(4-fluorophenyl)(3-(methylthio)phenyl)methyl)-11-hydroxy-5,6-dihydro-10H-imidazo[2′,1′:3,4]pyrazino[1,2-b]pyridazin-10-one] — 10-fold lower, 81 nM
- O=c1cnn2c(c1O)-c1nccn1C[C@@H]2[C@@H](c1ccc(F)cc1)c1cc(F)cc(F)c1 [Example 34, (S)-6-((S)-(3,5-difluorophenyl)(4-fluorophenyl)methyl)-11-hydroxy-5H-imidazo[2′,1′:3,4]pyrazino[1,2-b]pyridazin-10(6H)-one] — 33-fold lower, 25 nM
- CC(C)CC(=O)Oc1c2n(ncc1=O)[C@@H](C(c1ccc(F)cc1)c1ccc(F)cc1)Cn1ccnc1-2 [Example 87, (S)-6-(bis(4-fluorophenyl)methyl)-10-oxo-5,6-dihydro-10H-imidazo[2′,1′:3,4]pyrazino[1,2-b]pyridazin-11-yl 3-methylbutanoate] — 39-fold lower, 21 nM
- O=C(c1cnc2n1C[C@H](C(c1ccccc1)c1ccccc1)n1ccc(=O)c(O)c1-2)N1CCCC1 [Example 72, (S)-6-benzhydryl-11-hydroxy-3-(pyrrolidine-1-carbonyl)-5,6-dihydro-10H-imidazo[1,2-a]pyrido[2,1-c]pyrazin-10-one] — 2.1-fold higher, 1700 nM
- O=c1ccn2c(c1O)-c1ncc(CN3CCSCC3)n1C[C@@H]2C(c1ccccc1)c1ccccc1 [Example 62, (S)-6-benzhydryl-11-hydroxy-3-(thiomorpholinomethyl)-5,6-dihydro-10H-imidazo[1,2-a]pyrido[2,1-c]pyrazin-10-one] — within 1.5-fold, 640 nM
- O=c1cnn2c(c1O)-c1nccn1C[C@@H]2[C@@H](c1ccc(F)cc1)c1cccc(C(F)(F)F)c1 [Example 21, (S)-6-((S)-(4-fluorophenyl)(3-(trifluoromethyl)phenyl)methyl)-11-hydroxy-5,6-dihydro-10H-imidazo[2′,1′:3,4]pyrazino[1,2-b]pyridazin-10-one] — 16-fold lower, 52 nM
- CC(=O)Oc1c2n(ncc1=O)[C@@H](C(c1ccc(F)cc1)c1ccc(F)cc1)Cn1ccnc1-2 [Example 85, (S)-6-(bis(4-fluorophenyl)methyl)-10-oxo-5,6-dihydro-10H-imidazo[2′,1′:3,4]pyrazino[1,2-b]pyridazin-11-yl acetate] — 37-fold lower, 22 nM
- O=c1ccn2c(c1O)-c1ocnc1CN2C(c1ccccc1)c1ccccc1 [Example 84, 5-benzhydryl-10-hydroxy-4,5-dihydro-9H-oxazolo[5,4-d]pyrido[1,2-b]pyridazin-9-one] — 13-fold higher, 11000 nM
- O=C(NC1CC1)c1cnc2n1C[C@H](C(c1ccccc1)c1ccccc1)n1ccc(=O)c(O)c1-2 [Example 70, (S)-6-benzhydryl-N-cyclopropyl-11-hydroxy-10-oxo-5,6-dihydro-10H-imidazo[1,2-a]pyrido[2,1-c]pyrazine-3-carboxamide] — 2.1-fold higher, 1700 nM
- O=c1cnn2c(c1O)-c1nccn1C[C@@H]2[C@@H](c1ccc(F)cc1)c1ccc(F)c(F)c1 [Example 25, (S)-6-((S)-(3,4-difluorophenyl)(4-fluorophenyl)methyl)-11-hydroxy-5H-imidazo[2′,1′:3,4]pyrazino[1,2-b]pyridazin-10(6H)-one] — 15-fold lower, 56 nM
- O=c1ccn2c(c1O)-c1nccn1C(C1CC1)N2C1c2ccccc2CSc2ccccc21 (stereo not drawn) [Example 76, 5-cyclopropyl-6-(6,11-dihydrodibenzo[b,e]thiepin-11-yl)-11-hydroxy-5,6-dihydro-10H-imidazo[1,2-d]pyrido[2,1-f][1,2,4]triazin-10-one] — 5.1-fold lower, 160 nM
- O=c1cnn2c(c1O)-c1nccn1CC2C(c1cccc(Cl)c1)c1cccc(Cl)c1 (stereo not drawn) [Example 11, 6-(bis(3-chlorophenyl)methyl)-11-hydroxy-5H-imidazo[2′,1′:3,4]pyrazino[1,2-b]pyridazin-10(6H)-one] — 10-fold lower, 80 nM
- O=c1ccn2c(c1O)-c1ncc(CNC3CCOCC3)n1C[C@@H]2C(c1ccccc1)c1ccccc1 [Example 65, (S)-6-benzhydryl-11-hydroxy-3-(((tetrahydro-2H-pyran-4-yl)amino)methyl)-5,6-dihydro-10H-imidazo[1,2-a]pyrido[2,1-c]pyrazin-10-one] — 4.3-fold higher, 3500 nM
- O=c1cnn2c(c1O)-c1nccn1C[C@@H]2[C@@H](c1ccc(F)cc1)c1ccc(C(F)(F)F)cc1 [Example 32, (S)-6-((R)-(4-fluorophenyl)(4-(trifluoromethyl)phenyl)methyl)-11-hydroxy-5,6-dihydro-10H-imidazo[2′,1′:3,4]pyrazino[1,2-b]pyridazin-10-one] — 3.3-fold lower, 250 nM
- O=c1cnn2c(c1O)-c1nccn1C[C@@H]2C(c1cccc(Cl)c1)c1cccc(Cl)c1 [Example 15, (S)-6-(bis(3-chlorophenyl)methyl)-11-hydroxy-5H-imidazo [2′,1′:3,4] pyrazino [1,2-b]pyridazin-10(6H)-one] — 33-fold lower, 25 nM
- C[C@@H](NCc1cnc2n1C[C@H](C(c1ccccc1)c1ccccc1)n1ccc(=O)c(O)c1-2)C(F)(F)F [Example 66, (S)-6-benzhydryl-11-hydroxy-3-((((R)-1,1,1-trifluoropropan-2-yl)amino)methyl)-5,6-dihydro-10H-imidazo[1,2-a]pyrido[2,1-c]pyrazin-10-one] — 2.6-fold lower, 310 nM
- O=c1ccn2c(c1O)-c1nccn1C(C1CC1)N2C(c1ccccc1)c1ccccc1 (stereo not drawn) [Example 73, 6-benzhydryl-5-cyclopropyl-11-hydroxy-5,6-dihydro-10H-imidazo[1,2-d]pyrido[2,1-f][1,2,4]triazin-10-one] — 4.8-fold lower, 170 nM
- O=c1cnn2c(c1O)-c1nccn1C[C@@H]2[C@@H](c1ccc(F)cc1)c1ccccc1Cl [Example 29, (S)-6-((S)-(2-chlorophenyl)(4-fluorophenyl)methyl)-11-hydroxy-5,6-dihydro-10H-imidazo[2′,1′:3,4]pyrazino[1,2-b]pyridazin-10-one] — 11-fold lower, 72 nM
- CCc1cnc2n1C[C@H](C(c1ccccc1)c1ccccc1)n1ccc(=O)c(O)c1-2 [Example 9, (S)-6-benzhydryl-3-ethyl-11-hydroxy-5H-imidazo[1,2-a]pyrido[2,1-c]pyrazin-10(6H)-one] — within 1.5-fold, 580 nM

Reference: patent US10858366B2 (priority 2016, dated 2020)
